Drawing on ChEMBL document CHEMBL1212693, “Dorsomorphin inhibits BMP signals required for embryogenesis and iron metabolism” (Nat Chem Biol, 2008), this text covers Activity and inhibition for 2 compounds.

The species entered for data set [1] is Danio rerio. Kind of data set: Toxicity in zebrafish assessed as survivability at 4 to 400 uM treated at 3 hrs post-fertilization measured at 48 hrs. In kind it is organism-based. The note with it: in vivo.
For data set [2], the species on record is Danio rerio. Kind of data set: Inhibition of AMPK in zebrafish assessed as embryonic axis dorsalization at 20 uM treated at 3 hrs post-fertilization measured at 48 hrs. Also on record: scale not given: the % may be the effect or the level left.
Data set [3] is filed under the species Danio rerio. Kind of data set: Inhibition of AMPK in zebrafish assessed as embryonic axis dorsalization at 400 uM treated at 3 hrs post-fertilization measured at 48 hrs. More on the design: scale not given: the % may be the effect or the level left.
The species named for data set [4] is Danio rerio. Kind of data set: Inhibition of AMPK in zebrafish assessed as embryonic axis dorsalization at 4 uM treated at 3 hrs post-fertilization measured at 48 hrs. More on the design: scale not given: the % may be the effect or the level left.
For data set [5], the species on record is Danio rerio. Kind of data set: Inhibition of AMPK in zebrafish assessed as embryonic axis dorsalization at 100 uM treated at 3 hrs post-fertilization measured at 48 hrs. Also on record: scale not given: the % may be the effect or the level left.
The species entered for data set [6] is Danio rerio. Kind of data set: Inhibition of AMPK in zebrafish assessed as embryonic axis dorsalization at 40 uM treated at 3 hrs post-fertilization measured at 48 hrs. Also on record: scale not given: the % may be the effect or the level left.
For data set [7], the species on record is Danio rerio. Kind of data set: Inhibition of AMPK in zebrafish assessed as embryonic axis dorsalization at 200 uM treated at 3 hrs post-fertilization measured at 48 hrs. More on the design: scale not given: the % may be the effect or the level left.
Data set [8] concerns the target AMP-activated protein kinase, AMPK (Homo sapiens) (UniProt P54646+O43741+P54619+Q9UGJ0+Q9Y478+Q13131+Q9UGI9). Put plainly: Inhibition of AMPK-mediated hepcidin mRNA expression in BMP2-stimulated human Hep3B cells at 250 uM treated 30 mins before BMP2 challenge measured after 16 hrs by qRT-PCR analysis. The class given is cell-based. The note with it: Hep 3B2.
The next data set concerns Hep 3B2. Kind of data set: Inhibition of hepcidin mRNA expression in human Hep3B cells at 250 uM after 30 mins by qRT-PCR analysis. The class given is functional. The note with it: 0.5 h.

Structures are written as SMILES. Activity calls are given as the source filed them. No cut-off for these calls is given here.

As to `C=C1C(=O)O[C@H](CCCCCCCC)[C@H]1C(=O)O`, the Activity result in the data set filed under Danio rerio [1] was “Toxic”; in the data set filed under Danio rerio [2], 0%; in the data set filed under Danio rerio [3], 0%; in the data set filed under Danio rerio [4], 0%; in the data set filed under Danio rerio [5] it was 0%; in the data set filed under Danio rerio [6] it was 0%. Also, the Activity in the data set filed under Danio rerio [7] amounted to 0%.
Take `Nc1ncnc2c1ncn2[C@@H]1O[C@H](CO)[C@@H](O)[C@@H]1O` [VIDARABINE]: the inhibition entry in [8] is “inactive”. For the same compound, the inhibition at 250 µM in the data set with Hep 3B2 came to 40%.
